Experimental data reported in patent US20240308996A1, “PYRIDOPYRIDINES AND DERIVATIVES THEREOF AS SELECTIVE KINASE INHIBITORS” (University of Sharjah, priority 2023, published 2024).

What was measured:
[1] = test system: hepatocellular carcinoma cell lines; experiment: Screening against HCC cell lines; type: cell-based
Experimental: The target compounds were tested against hepatocellular carcinoma cell lines. Compounds 1j. 13a. 13b. 13c. […] The mean inhibition percentage values are illustrated in Table 9.
(§1) Two HCC cell lines (Hep3B and HepG2) were used for screening the antiproliferative activity of the synthesized compounds. The cell lines were obtained from the European Collection of Cell Cultures (ECACC, UK) and maintained in Dulbecco's Modified Eagle Medium (DMEM: Sigma-Aldrich) supplemented with 10% fetal bovine serum (FBS) and 1% penicillin/streptomycin and incubated at 37° C. in a 5% CO2 air atmosphere. In addition, WI-38 normal cell line was used to investigate the safety of these compounds.
(§2) MTT assay was conducted to calculate the IC50 of the compounds following the reported procedure . Briefly, the cells were seeded in 96-well tissue culture plates with a density of 5×10^4 cells/well and incubated overnight at 37° C. in a 5% CO2 air atmosphere. After that, cells were treated with the newly synthesized compounds or sorafenib as a positive control. DMSO was used as a negative control. After 48 h, the media were aspirated, and replaced with media containing 0.5 mg/mL of MTT tetrazolium dye (Sigma-Aldrich) for 2 h at 37° C. Finally, the media were removed and 200 μL of DMSO was added to solubilize the formazan crystals. Absorbance was then measured at 570 nm using Varioskan Flash multimode plate reader (Thermo Scientific, Massachusetts, USA).

Hep3B = experiment: MTT assay, Hep3B HCC cell line; type: cell-based; settings: Homo sapiens, 48 h, mean of triplicate assays ± SEM
Experimental: as §1
as §2, with “After that, cells were treated with the newly synthesized compounds or sorafenib as a positive control.” left out

HepG2 = experiment: MTT assay, HepG2 HCC cell line; type: cell-based; settings: Homo sapiens, 48 h, mean of triplicate assays ± SEM
Experimental: as §1
as §2, with “After that, cells were treated with the newly synthesized compounds or sorafenib as a positive control.” left out

SK-MEL-28 = experiment: NCI-60 cell line panel: SK-MEL-28; type: cell-based; settings: Melanoma, total growth inhibition
Experimental: (§3) It was carried out at the NCI, Bethesda, MD, USA, utilizing their standard protocol.

ACHN = experiment: NCI-60 cell line panel: ACHN; type: cell-based; settings: Renal Cancer, total growth inhibition
Experimental: as §3

SF-268 = experiment: NCI-60 cell line panel: SF-268; type: cell-based; settings: CNS Cancer, total growth inhibition
Experimental: as §3

SK-OV-3 = experiment: NCI-60 cell line panel: SK-OV-3; type: cell-based; settings: Ovarian Cancer, total growth inhibition
Experimental: as §3

SR = experiment: NCI-60 cell line panel: SR; type: cell-based; settings: Leukemia, total growth inhibition
Experimental: as §3

SW-620 = experiment: NCI-60 cell line panel: SW-620; type: cell-based; settings: Colon Cancer, total growth inhibition
Experimental: as §3

panel of 50 kinases = experiment: 50-kinase panel; type: biochemical
NCI-H322M = experiment: NCI-60 cell line panel: NCI-H322M; type: cell-based; settings: Non-Small Cell Lung Cancer, total growth inhibition
Experimental: as §3

CAKI-1 = experiment: NCI-60 cell line panel: CAKI-1; type: cell-based; design: TGI: unit not given here; settings: Renal Cancer, total growth inhibition
Experimental: as §3

A549/ATCC = experiment: NCI-60 cell line panel: A549/ATCC; type: cell-based; settings: Non-Small Cell Lung Cancer, total growth inhibition
Experimental: as §3

DU-145 = experiment: NCI-60 cell line panel: DU-145; type: cell-based; settings: Prostate Cancer, total growth inhibition
Experimental: as §3

NCI/ADR-RES = experiment: NCI-60 cell line panel: NCI/ADR-RES; type: cell-based; design: TGI: unit not given here; settings: Ovarian Cancer, total growth inhibition
Experimental: as §3

IGROV1 = experiment: NCI-60 cell line panel: IGROV1; type: cell-based; settings: Ovarian Cancer, total growth inhibition
Experimental: as §3

RXF 393 = experiment: NCI-60 cell line panel: RXF 393; type: cell-based; settings: Renal Cancer, total growth inhibition
Experimental: as §3

NCI-H460 = experiment: NCI-60 cell line panel: NCI-H460; type: cell-based; settings: Non-Small Cell Lung Cancer, total growth inhibition
Experimental: as §3

OVCAR-4 = experiment: NCI-60 cell line panel: OVCAR-4; type: cell-based; settings: Ovarian Cancer, total growth inhibition, in µM (unit assumed)
Experimental: as §3

MDA-MB-468 = experiment: NCI-60 cell line panel: MDA-MB-468; type: cell-based; settings: Breast Cancer, total growth inhibition
Experimental: as §3

SN12C = experiment: NCI-60 cell line panel: SN12C; type: cell-based; settings: Renal Cancer, total growth inhibition
Experimental: as §3

MOLT-4 = experiment: NCI-60 cell line panel: MOLT-4; type: cell-based; design: TGI: unit not given here; settings: Leukemia, total growth inhibition
Experimental: as §3

NCI-H522 = experiment: NCI-60 cell line panel: NCI-H522; type: cell-based; design: TGI: unit not given here; settings: Non-Small Cell Lung Cancer
Experimental: as §3

EKVX = experiment: NCI-60 cell line panel: EKVX; type: cell-based; settings: Non-Small Cell Lung Cancer, total growth inhibition, in µM (unit assumed)
Experimental: as §3

M14 = experiment: NCI-60 cell line panel: M14; type: cell-based; settings: Melanoma
Experimental: as §3

MALME-3M = experiment: NCI-60 cell line panel: MALME-3M; type: cell-based; settings: Melanoma
Experimental: as §3

BT-549 = experiment: NCI-60 cell line panel: BT-549; type: cell-based; settings: Breast Cancer, total growth inhibition
Experimental: as §3

HT29 = experiment: NCI-60 cell line panel: HT29; type: cell-based
Experimental: as §3

NCI-H23 = experiment: NCI-60 cell line panel: NCI-H23; type: cell-based; settings: Non-Small Cell Lung Cancer
Experimental: as §3

786-0 = experiment: NCI-60 cell line panel: 786-0; type: cell-based; settings: Renal Cancer, total growth inhibition
Experimental: as §3

HS 578T = experiment: NCI-60 cell line panel: HS 578T; type: cell-based; settings: Breast Cancer, HS 578T; total growth inhibition
Experimental: as §3

OVCAR-8 = experiment: NCI-60 cell line panel: OVCAR-8; type: cell-based; settings: Ovarian Cancer, total growth inhibition, in µM (unit assumed)
Experimental: as §3

SNB-75 = experiment: NCI-60 cell line panel: SNB-75; type: cell-based; design: TGI: unit not given here; settings: CNS Cancer, total growth inhibition
Experimental: as §3

COLO 205 = experiment: NCI-60 cell line panel: COLO 205; type: cell-based; design: TGI: unit not given here; settings: Colon Cancer
Experimental: as §3

SK-MEL-2 = experiment: NCI-60 cell line panel: SK-MEL-2; type: cell-based; design: TGI: unit not given here; settings: Melanoma
Experimental: as §3

PC-3 = experiment: NCI-60 cell line panel: PC-3; type: cell-based; settings: Prostate Cancer
Experimental: as §3

OVCAR-3 = experiment: NCI-60 cell line panel: OVCAR-3; type: cell-based; settings: Ovarian Cancer, total growth inhibition
Experimental: as §3

U251 = experiment: NCI-60 cell line panel: U251; type: cell-based; design: TGI: unit not given here
Experimental: as §3

MDA-MB-231/ATCC = experiment: NCI-60 cell line panel: MDA-MB-231/ATCC; type: cell-based; settings: Breast Cancer
Experimental: as §3

UO-31 = experiment: NCI-60 cell line panel: UO-31; type: cell-based; design: TGI: unit not given here; settings: Renal Cancer, total growth inhibition
Experimental: as §3

HOP-62 = experiment: NCI-60 cell line panel: HOP-62; type: cell-based; settings: Non-Small Cell Lung Cancer
Experimental: as §3

CCRF-CEM = experiment: NCI-60 cell line panel: CCRF-CEM; type: cell-based; settings: Leukemia
Experimental: as §3

TK-10 = experiment: NCI-60 cell line panel: TK-10; type: cell-based; settings: Renal Cancer
Experimental: as §3

NCI-H226 = experiment: NCI-60 cell line panel: NCI-H226; type: cell-based; settings: Non-Small Cell Lung Cancer
Experimental: as §3

UACC-257 = experiment: NCI-60 cell line panel: UACC-257; type: cell-based; settings: Melanoma
Experimental: as §3

SNB-19 = experiment: NCI-60 cell line panel: SNB-19; type: cell-based; settings: CNS Cancer, total growth inhibition
Experimental: as §3

A498 = experiment: NCI-60 cell line panel: A498; type: cell-based; settings: Renal Cancer, total growth inhibition
Experimental: as §3

MCF7 = experiment: NCI-60 cell line panel: MCF7; type: cell-based; settings: Breast Cancer, total growth inhibition
Experimental: as §3

HCT-15 = experiment: NCI-60 cell line panel: HCT-15; type: cell-based; settings: Colon Cancer, total growth inhibition
Experimental: as §3

OVCAR-5 = experiment: NCI-60 cell line panel: OVCAR-5; type: cell-based; settings: Ovarian Cancer, total growth inhibition
Experimental: as §3

O=C(Nc1ccc(-c2cc(C(=O)Nc3ccccn3)c3ncccc3n2)cc1)Nc1ccc(F)c(C(F)(F)F)c1 [Compound 1j, 2-(4-(3-(4-Fluoro-3-(trifluoromethyl)phenyl)ureido)phenyl)-N-(pyridin-2-yl)-1,5-naphthyridine-4-carboxamide]
inhibition activity against hepatocellular carcinoma cell lines compared with sorafenib [1]: higher inhibition activity than sorafenib | IC50 (Hep3B): 3.87 ± 0.13 µM | IC50 (HepG2): 3.68 ± 0.22 µM

CNC(=O)c1cc(-c2ccc(NC(=S)Nc3cc(C(F)(F)F)cc(C(F)(F)F)c3)cc2)nc2cccnc12 [Compound 1m, 2-(4-(3-(3,5-Bis(trifluoromethyl)phenyl)thioureido)phenyl)-N-methyl-1,5-naphthyridine-4-carboxamide]
inhibition activity against hepatocellular carcinoma cell lines compared with sorafenib [1]: inhibition activity comparable to sorafenib | IC50 (Hep3B): 6.56 ± 0.31 µM | IC50 (HepG2): 5.74 ± 0.2 µM

CNC(=O)c1cc(-c2ccc(NC(=O)Nc3ccc(N4CCOCC4)c(C(F)(F)F)c3)cc2)nc2cccnc12 [Compound 13a, N-Methyl-2-(4-(3-(4-morpholino-3-(trifluoromethyl)phenyl)ureido)phenyl)-1,5-naphthyridine-4-carboxamide]
inhibition activity against hepatocellular carcinoma cell lines compared with sorafenib [1]: higher inhibition activity than sorafenib | IC50 (Hep3B): 1.89 ± 0.18 µM | IC50 (HepG2): 1.27 ± 0.14 µM

CNC(=O)c1cc(Oc2ccc(NC(=O)Nc3ccc(Cl)c(C(F)(F)F)c3)cc2)ccn1 [Sorafenib, reference compound]
TGI (SK-MEL-28): 2.51 µM | TGI (ACHN): 10 µM | TGI (SF-268): 3.98 µM | TGI (SK-OV-3): 5.01 µM | TGI (SR): 63.1 µM | TGI (SW-620): 5.01 µM | number of kinases inhibited (more than 50% inhibition) (panel of 50 kinases): 22 kinases | TGI (NCI-H322M): 5.01 µM | TGI (CAKI-1): 12.59 | TGI (A549/ATCC): 7.94 µM | TGI (DU-145): 7.94 µM | TGI (NCI/ADR-RES): 7.94 | TGI (IGROV1): 10 µM | TGI (RXF 393): 5.01 µM | TGI (NCI-H460): 5.01 µM | TGI (OVCAR-4): 25.12 | TGI (MDA-MB-468): 7.94 µM | TGI (SN12C): 3.16 µM | TGI (MOLT-4): 100 | IC50 (NCI-H522; Homo sapiens): 2 µM | TGI (NCI-H522; total growth inhibition): 5.01 | TGI (EKVX): 19.95 | IC50 (M14; Homo sapiens): 2 µM | TGI (M14; total growth inhibition): 3.16 µM | IC50 (MALME-3M; Homo sapiens): 2 µM | TGI (MALME-3M; total growth inhibition, in µM (unit assumed)): 39.81 | TGI (BT-549): 3.98 µM | TGI (HT29; Colon Cancer, total growth inhibition): 5.01 µM | IC50 (HT29; Homo sapiens, HT-29, Colon Cancer): 2 µM | IC50 (NCI-H23; Homo sapiens): 2 µM | TGI (NCI-H23; total growth inhibition): 5.01 µM | TGI (786-0): 5.01 µM | TGI (HS 578T): 3.98 µM | TGI (OVCAR-8): 12.59 | TGI (SNB-75): 3.98 | TGI (COLO 205; total growth inhibition): 3.16 | IC50 (COLO 205; Homo sapiens): 2 µM | IC50 (SK-MEL-2; Homo sapiens): 2 µM | TGI (SK-MEL-2; total growth inhibition): 6.31 | IC50 (PC-3; Homo sapiens): 2 µM | TGI (PC-3; total growth inhibition): 5.01 µM | TGI (OVCAR-3): 3.98 µM | TGI (U251; CNS Cancer, total growth inhibition): 3.16 | IC50 (U251; Homo sapiens, U-251, CNS Cancer): 2 µM | TGI (MDA-MB-231/ATCC; total growth inhibition): 3.16 µM | IC50 (MDA-MB-231/ATCC; Homo sapiens): 1.26 µM | TGI (UO-31): 6.31 | IC50 (HOP-62; Homo sapiens): 2 µM | TGI (HOP-62; total growth inhibition): 3.16 µM | IC50 (CCRF-CEM; Homo sapiens): 2 µM | TGI (CCRF-CEM; total growth inhibition): 5.01 µM | IC50 (TK-10; Homo sapiens): 3.98 µM | TGI (TK-10; total growth inhibition): 10 µM | IC50 (NCI-H226; Homo sapiens): 2 µM | TGI (NCI-H226; total growth inhibition): 3.16 µM | IC50 (UACC-257; Homo sapiens): 2 µM | TGI (UACC-257; total growth inhibition): 5.01 µM | TGI (SNB-19): 3.98 µM | TGI (A498): 3.16 µM | TGI (MCF7): 7.94 µM | TGI (HCT-15): 3.16 µM | TGI (OVCAR-5): 6.31 µM
